The structures appear in SMILES notation. Values after ≈ are worked out from the molar mass of the structure shown.

One assay deals with Proteus vulgaris. Nature of the assay: Antibacterial activity against Proteus vulgaris by well diffusion method. The assay is classed as functional. Background: A growth-free zone around the sample is the usual read-out of agar diffusion tests.
A further assay relates to Proteus mirabilis. Nature of the assay: Antibacterial activity against Proteus mirabilis by well diffusion method. In kind it is functional.
Another assay relates to Staphylococcus aureus. The assay can be described thus: Antibacterial activity against Staphylococcus aureus by well diffusion method. In kind it is functional.
The test system of another assay is Salmonella typhi. The assay can be described thus: Antibacterial activity against Salmonella typhi by well diffusion method. In kind it is functional, Salmonella enterica subsp. enterica serovar Typhi. The note with it: Salmonella enterica.
For the next assay, the system named is Fusarium oxysporum. Nature of the assay: Antifungal activity against Fusarium oxysporum by poison food technique. In kind it is functional.
The test system of another assay is Macrophomina phaseolina. Nature of the assay: Antifungal activity against Macrophomina phaseolina by poison food technique. In kind it is functional.

As for `COc1ccc([C@H]2C3CCCN3[C@@]3(C(=O)Nc4ccccc43)[C@]23CCC2c4ccccc4NC2C3=O)cc1` (some centres not stated), the MIC against Proteus vulgaris amounted to 15 µg/mL (≈ 29.7 µM); in the assay on Proteus mirabilis it was 25 µg/mL (≈ 49.4 µM); with Staphylococcus aureus, 40 µg/mL (≈ 79.1 µM); against Salmonella typhi, 45 µg/mL (≈ 89 µM); in the assay with Fusarium oxysporum, 75 µg/mL (≈ 148 µM); in the assay on Macrophomina phaseolina, 25 µg/mL (≈ 49.4 µM).
As to `COC(=O)Nc1nc2ccccc2[nH]1` [CARBENDAZIM], the MIC is 18 µg/mL (≈ 94.1 µM) in the assay with Fusarium oxysporum and 15 µg/mL (≈ 78.5 µM) against Macrophomina phaseolina.
Take `O=C1C2Nc3ccccc3C2CC[C@@]12[C@@H](c1ccc(Br)cc1)C1CCCN1[C@@]21C(=O)Nc2ccccc21` (some centres not stated): the MIC came out at 25 µg/mL (≈ 45.1 µM) with Proteus vulgaris; 30 µg/mL (≈ 54.1 µM) in the assay on Proteus mirabilis; 45 µg/mL (≈ 81.2 µM) with Staphylococcus aureus; 30 µg/mL (≈ 54.1 µM) in the assay with Salmonella typhi; 50 µg/mL (≈ 90.2 µM) in the assay on Fusarium oxysporum; 25 µg/mL (≈ 45.1 µM) in the assay with Macrophomina phaseolina.
For `O=C1C2Nc3ccccc3C2CC[C@@]12[C@@H](c1ccccc1)C1CCCN1[C@@]21C(=O)Nc2ccccc21` (some centres not stated), the minimum inhibitory concentration (MIC) against Proteus vulgaris was 30 µg/mL (≈ 63.1 µM); against Proteus mirabilis it was 55 µg/mL (≈ 116 µM); against Salmonella typhi, 20 µg/mL (≈ 42.1 µM); against Fusarium oxysporum it was 125 µg/mL (≈ 263 µM); in the assay with Macrophomina phaseolina, 50 µg/mL (≈ 105 µM).
As to `O=C1C2Nc3ccccc3C2CC[C@@]12[C@@H](c1ccc([N+](=O)[O-])cc1)C1CCCN1[C@@]21C(=O)Nc2ccccc21` (some centres not stated), the MIC against Proteus vulgaris amounted to 35 µg/mL (≈ 67.2 µM); against Proteus mirabilis, 55 µg/mL (≈ 106 µM); in the assay on Staphylococcus aureus it was 25 µg/mL (≈ 48 µM); against Salmonella typhi, 40 µg/mL (≈ 76.8 µM); against Fusarium oxysporum, 75 µg/mL (≈ 144 µM); against Macrophomina phaseolina, 100 µg/mL (≈ 192 µM).
Regarding `Cc1ccc([C@H]2C3CCCN3[C@@]3(C(=O)Nc4ccccc43)[C@]23CCC2c4ccccc4NC2C3=O)cc1` (some centres not stated), the MIC was found to be 40 µg/mL (≈ 81.7 µM) in the assay on Proteus vulgaris; 65 µg/mL (≈ 133 µM) against Proteus mirabilis; 45 µg/mL (≈ 91.9 µM) against Staphylococcus aureus; 35 µg/mL (≈ 71.5 µM) in the assay on Salmonella typhi; 75 µg/mL (≈ 153 µM) in the assay with Fusarium oxysporum; 50 µg/mL (≈ 102 µM) with Macrophomina phaseolina.
For the compound `O=C1C2Nc3ccccc3C2CC[C@@]12[C@@H](c1ccc(Cl)cc1)C1CCCN1[C@@]21C(=O)Nc2ccccc21` (some centres not stated), the MIC came to 10 µg/mL (≈ 19.6 µM) against Proteus vulgaris; 35 µg/mL (≈ 68.6 µM) in the assay on Proteus mirabilis; 20 µg/mL (≈ 39.2 µM) with Staphylococcus aureus; 30 µg/mL (≈ 58.8 µM) with Salmonella typhi; 125 µg/mL (≈ 245 µM) against Fusarium oxysporum; 75 µg/mL (≈ 147 µM) against Macrophomina phaseolina.
Take `CN(C)c1ccc([C@H]2C3CCCN3[C@@]3(C(=O)Nc4ccccc43)[C@]23CCC2c4ccccc4NC2C3=O)cc1` (some centres not stated): the MIC against Proteus vulgaris turned out to be 45 µg/mL (≈ 86.8 µM); against Proteus mirabilis it was 50 µg/mL (≈ 96.4 µM); against Staphylococcus aureus, 35 µg/mL (≈ 67.5 µM); in the assay with Salmonella typhi it was 35 µg/mL (≈ 67.5 µM); against Fusarium oxysporum, 150 µg/mL (≈ 289 µM); with Macrophomina phaseolina, 75 µg/mL (≈ 145 µM).
With `CN(C)[C@@H]1C(O)=C(C(N)=O)C(=O)[C@@]2(O)C(O)=C3C(=O)c4c(O)cccc4[C@@](C)(O)[C@H]3C[C@@H]12` [TETRACYCLINE], the MIC stood at 15 µg/mL (≈ 33.8 µM) in the assay on Proteus vulgaris, 20 µg/mL (≈ 45 µM) in the assay on Proteus mirabilis, 10 µg/mL (≈ 22.5 µM) in the assay with Staphylococcus aureus and 15 µg/mL (≈ 33.8 µM) in the assay with Salmonella typhi.

Usually MIC stands for the lowest concentration that inhibits growth of the organism. Read a high MIC as a less susceptible organism.

The record behind these values is ChEMBL document CHEMBL1143903, “Synthesis of novel spiropyrrolizidines as potent antimicrobial agents for human and plant pathogens” (2008).
